Measurements from US11733161B2, “Method of determining concentration of subject based on fraction bound measurement” (Korea Advanced Institute of Science and Technology, priority 2019, dated 2023).
Read-outs that look alike come from different tables or passages of the source.

Assay: real-time WGM (SRSN) resonator measurement of the streptavidin-biotin interaction, Langmuir model analysis
Assay type: binding
Conditions: for association rate: fit of Equation 7
From the text: An interaction between streptavidin and biotin may be measured. […] Prior to experiments, the SRSN resonator may be pre-processed using biotin. When streptavidin of a DPBS flows into a fluid channel, streptavidin starts to attach biotin on a surface of the optical active resonator. Streptavidin that has closely attached biotin on the surface of the resonator may increase the length of an optical path of a resonance mode. Accordingly, a resonance movement may occur because the resonance state of the optical active resonator is changed.
A beam of a 457.9 nm wavelength argon laser 730 may be concentrated on the top of an SRSN resonator 710 through the PDMS wall of a micro microfluidic channel 720. The laser intensity of a focal plane is 20 W/cm^2 and may obtain strong PL emission including a characteristic cavity mode profile by stimulating silicon nano-clusters. The PL emission is collected through the side wall of the microfluidic channel 720 by an objective lens 750 (numerical aperture: 0.15). In this case, a transverse magnetic (TM) polarization component may be selectively captured by a polarity bond. […] The TM mode may be selectively measured as a cavity TM mode because the TM mode has a slot structure and can be firmly fixed compared to a TE mode. In this case, a beam splitter 740 may be configured between the argon laser 730 and the objective lens 750 and between the objective lens 750 and a CCD camera 760. A separate objective lens, a polarizer 770 and the spectrometer 780 may be configured for measurement.
The PL spectrum is measured after the state of a frequency movement is a saturation state.
In order to additionally research the developed detection device and to analyze the influence of the nano-slot structure on molecule dynamics, a time-excessive operation of a frequency movement caused by an interaction was measured. […] Such a time shift of the frequency movement may be understood based on the Langmuir model. This is commonly used to analyze the kinetics of a surface bonding reaction in a system in which a ligand has been fixed to a firm surface. A fraction proportional to a bio sensor signal may be defined as the number of ligands and analysis complexes based on the Langmuir model, and may be divided by a total number of ligands represent in the following equation in a connection step.
[formula] in the saturation state. In FIG. 10A, a solid line indicates a suitable curve of Equation 7 for measured data points. In this curve, values of kon^obs and fbeq(c) can be obtained. Kd, kon and koff can be derived by substituting the two values with Equation 8 and Equation 9 and solving both the equations at the same time.

streptavidin
peak shift (streptavidin 144 nM, saturation state (FIG. 9B)): 1.72 nm | association rate (streptavidin concentration 9 nM in DPBS): 12000 M⁻¹ s⁻¹ | association rate (streptavidin concentration 36 nM in DPBS): 4200 M⁻¹ s⁻¹ | association rate (streptavidin concentration 54 nM in DPBS): 3200 M⁻¹ s⁻¹ | association rate (streptavidin concentration 90 nM in DPBS): 6400 M⁻¹ s⁻¹ | connection ratio / association rate (streptavidin-biotin complex, real-time bonding, Langmuir model): 0.0003 M⁻¹ s⁻¹ | koff (streptavidin-biotin complex, saturation state (FIG. 10B)): 0.014 s⁻¹ | Kd (streptavidin-biotin complex, saturation state, Hill model fit (FIG. 10B), read-out: Kd): 380 nM | Kd (streptavidin-biotin complex, read-out: separation constant): 380 nM

Bovine Serum Albumin [BSA]
frequency movement (1 mg/mL, flowed 35 minutes over the biotin-processed resonator, control experiment): 0.25 nm
